Laboratory results from PubChem BioAssay (NCI).
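Cells were grown in 96-well plates and exposed to each compound for 48 hours at five concentrations; endpoints were interpolated linearly between bracketing concentrations, or set to the highest concentration if not reached. GI50 marks 50% less growth. TGI: total growth inhibition.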

What was measured:
Experiment in all cases: NCI-60 cell line screen, 48 h
DLD-1 colon = test system: DLD-1 colon
HL-60(TB) leukemia = test system: HL-60(TB) leukemia
CCRF-CEM leukemia = test system: CCRF-CEM leukemia
RXF 393 renal = test system: RXF 393 renal
SR leukemia = test system: SR leukemia
TK-10 renal = test system: TK-10 renal
SF-539 CNS = test system: SF-539 CNS
UACC-62 melanoma = test system: UACC-62 melanoma
U251 CNS = test system: U251 CNS
SW-620 colon = test system: SW-620 colon
SK-MEL-5 melanoma = test system: SK-MEL-5 melanoma
DMS 273 small cell lung = test system: DMS 273 small cell lung
OVCAR-8 ovarian = test system: OVCAR-8 ovarian
OVCAR-5 ovarian = test system: OVCAR-5 ovarian
KM12 colon = test system: KM12 colon
786-0 renal = test system: 786-0 renal
LXFL 529 NSCLC = test system: LXFL 529 NSCLC
SK-MEL-28 melanoma = test system: SK-MEL-28 melanoma
KM20L2 colon = test system: KM20L2 colon
NCI-H460 lung = test system: NCI-H460 lung
SNB-78 CNS = test system: SNB-78 CNS
NCI-H23 lung = test system: NCI-H23 lung
SNB-19 CNS = test system: SNB-19 CNS
LOX IMVI melanoma = test system: LOX IMVI melanoma
SF-268 CNS = test system: SF-268 CNS
SN12C renal = test system: SN12C renal
MOLT-4 leukemia = test system: MOLT-4 leukemia
CAKI-1 renal = test system: CAKI-1 renal
M19-MEL melanoma = test system: M19-MEL melanoma
NCI-H522 lung = test system: NCI-H522 lung
K-562 leukemia = test system: K-562 leukemia
IGROV1 ovarian = test system: IGROV1 ovarian
UACC-257 melanoma = test system: UACC-257 melanoma
MALME-3M melanoma = test system: MALME-3M melanoma
A549 NSCLC = test system: A549 NSCLC
OVCAR-4 ovarian = test system: OVCAR-4 ovarian
OVCAR-3 ovarian = test system: OVCAR-3 ovarian
XF 498 CNS = test system: XF 498 CNS
SNB-75 CNS = test system: SNB-75 CNS
COLO 205 colon = test system: COLO 205 colon
SF-295 CNS = test system: SF-295 CNS
A498 renal = test system: A498 renal
SK-MEL-2 melanoma = test system: SK-MEL-2 melanoma
HT29 colon = test system: HT29 colon
RPMI-8226 leukemia = test system: RPMI-8226 leukemia
ACHN renal = test system: ACHN renal
SK-OV-3 ovarian = test system: SK-OV-3 ovarian
HOP-92 NSCLC = test system: HOP-92 NSCLC
HCT-116 colon = test system: HCT-116 colon
UO-31 renal = test system: UO-31 renal
NCI-H226 lung = test system: NCI-H226 lung
HOP-18 NSCLC = test system: HOP-18 NSCLC
M14 melanoma = test system: M14 melanoma

CC(=O)[O][Ga]([Br])[O]C(C)=O
GI50 (DLD-1 colon): > 100 µM
TGI (DLD-1 colon): > 100 µM
GI50 (HL-60(TB) leukemia): > 100 µM
TGI (HL-60(TB) leukemia): > 100 µM
GI50 (CCRF-CEM leukemia): > 100 µM
TGI (CCRF-CEM leukemia): > 100 µM
GI50 (RXF 393 renal): > 100 µM
TGI (RXF 393 renal): > 100 µM
GI50 (SR leukemia): > 100 µM
TGI (SR leukemia): > 100 µM
GI50 (TK-10 renal): > 100 µM
TGI (TK-10 renal): > 100 µM
GI50 (SF-539 CNS): > 100 µM
TGI (SF-539 CNS): > 100 µM
GI50 (UACC-62 melanoma): > 100 µM
TGI (UACC-62 melanoma): > 100 µM
GI50 (U251 CNS): > 100 µM
TGI (U251 CNS): > 100 µM
GI50 (SW-620 colon): > 100 µM
TGI (SW-620 colon): > 100 µM
GI50 (SK-MEL-5 melanoma): > 100 µM
TGI (SK-MEL-5 melanoma): > 100 µM
GI50 (DMS 273 small cell lung): > 100 µM
TGI (DMS 273 small cell lung): > 100 µM
GI50 (OVCAR-8 ovarian): > 100 µM
TGI (OVCAR-8 ovarian): > 100 µM
GI50 (OVCAR-5 ovarian): > 100 µM
TGI (OVCAR-5 ovarian): > 100 µM
GI50 (KM12 colon): > 100 µM
TGI (KM12 colon): > 100 µM
GI50 (786-0 renal): > 100 µM
TGI (786-0 renal): > 100 µM
GI50 (LXFL 529 NSCLC): > 100 µM
TGI (LXFL 529 NSCLC): > 100 µM
GI50 (SK-MEL-28 melanoma): > 100 µM
TGI (SK-MEL-28 melanoma): > 100 µM
GI50 (KM20L2 colon): > 100 µM
TGI (KM20L2 colon): > 100 µM
GI50 (NCI-H460 lung): > 100 µM
TGI (NCI-H460 lung): > 100 µM
GI50 (SNB-78 CNS): > 100 µM
TGI (SNB-78 CNS): > 100 µM
GI50 (NCI-H23 lung): > 100 µM
TGI (NCI-H23 lung): > 100 µM
GI50 (SNB-19 CNS): > 100 µM
TGI (SNB-19 CNS): > 100 µM
GI50 (LOX IMVI melanoma): > 100 µM
TGI (LOX IMVI melanoma): > 100 µM
GI50 (SF-268 CNS): > 100 µM
TGI (SF-268 CNS): > 100 µM
GI50 (SN12C renal): > 100 µM
TGI (SN12C renal): > 100 µM
GI50 (MOLT-4 leukemia): > 100 µM
TGI (MOLT-4 leukemia): > 100 µM
GI50 (CAKI-1 renal): > 100 µM
TGI (CAKI-1 renal): > 100 µM
GI50 (M19-MEL melanoma): > 100 µM
TGI (M19-MEL melanoma): > 100 µM
GI50 (NCI-H522 lung): > 100 µM
TGI (NCI-H522 lung): > 100 µM
GI50 (K-562 leukemia): > 100 µM
TGI (K-562 leukemia): > 100 µM
GI50 (IGROV1 ovarian): > 100 µM
TGI (IGROV1 ovarian): > 100 µM
GI50 (UACC-257 melanoma): > 100 µM
TGI (UACC-257 melanoma): > 100 µM
GI50 (MALME-3M melanoma): > 100 µM
TGI (MALME-3M melanoma): > 100 µM
GI50 (A549 NSCLC): > 100 µM
TGI (A549 NSCLC): > 100 µM
GI50 (OVCAR-4 ovarian): > 100 µM
TGI (OVCAR-4 ovarian): > 100 µM
GI50 (OVCAR-3 ovarian): > 100 µM
TGI (OVCAR-3 ovarian): > 100 µM
GI50 (XF 498 CNS): > 100 µM
TGI (XF 498 CNS): > 100 µM
GI50 (SNB-75 CNS): > 100 µM
TGI (SNB-75 CNS): > 100 µM
GI50 (COLO 205 colon): > 100 µM
TGI (COLO 205 colon): > 100 µM
GI50 (SF-295 CNS): > 100 µM
TGI (SF-295 CNS): > 100 µM
GI50 (A498 renal): > 100 µM
TGI (A498 renal): > 100 µM
GI50 (SK-MEL-2 melanoma): > 100 µM
TGI (SK-MEL-2 melanoma): > 100 µM
GI50 (HT29 colon): > 100 µM
TGI (HT29 colon): > 100 µM
GI50 (RPMI-8226 leukemia): > 100 µM
TGI (RPMI-8226 leukemia): > 100 µM
GI50 (ACHN renal): > 100 µM
TGI (ACHN renal): > 100 µM
GI50 (SK-OV-3 ovarian): > 100 µM
TGI (SK-OV-3 ovarian): > 100 µM
GI50 (HOP-92 NSCLC): > 100 µM
TGI (HOP-92 NSCLC): > 100 µM
GI50 (HCT-116 colon): > 100 µM
TGI (HCT-116 colon): > 100 µM
GI50 (UO-31 renal): > 100 µM
TGI (UO-31 renal): > 100 µM
GI50 (NCI-H226 lung): > 100 µM
TGI (NCI-H226 lung): > 100 µM
GI50 (HOP-18 NSCLC): > 100 µM
TGI (HOP-18 NSCLC): > 100 µM
GI50 (M14 melanoma): > 100 µM
TGI (M14 melanoma): > 100 µM
